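Tested at 5 concentrations; 48 h exposure; 96-well plates; endpoints linearly interpolated, else capped at highest concentration. TGI is the concentration that stops growth completely.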
tested on: UACC-257 melanoma; experiment: NCI anticancer screen, dose series, 48 h

First: Cn1c2ccccc2c2ncc3[nH]c4ccccc4c3c21
Second: O=[N+]([O-])c1ccc(-c2cnc3ccccn23)cc1
The TGI of the first is lower: 42.6 µM for the first, greater than 100 µM for the second.

COc1ccc(/C=C(\C(C)=O)C(=O)Nc2ccccc2)cc1 and COc1ccc(/C(Cl)=C(\C=O)c2ccc(OC)cc2)cc1 cannot be ordered by TGI: greater than 100 µM for the first, greater than 100 µM for the second.

Cc1nn(C(=O)CC(=O)Nc2ccc(Cl)cc2)c(C)c1N=Nc1ccccc1C(=O)O and Cc1cccc2c1Sc1ccccc1C2NC(=O)CCN(C)C (stereo unspecified) cannot be ordered by TGI: greater than 100 µM for the first, greater than 100 µM for the second.

CC(Oc1ccc(OCC2CCCCC2)cc1)C(=O)OCC(=O)c1ccc(-c2ccccc2)cc1 (stereo unspecified) and COC12OCCN(C)C1=CC(=O)C1=NNC(C)C12 (stereo unspecified) cannot be ordered by TGI: greater than 100 µM for the first, greater than 100 µM for the second.

tested on: HCT-116 colon; experiment: NCI anticancer screen, dose series, 48 h

Going from Cn1c2ccccc2c2ncc3[nH]c4ccccc4c3c21 to O=[N+]([O-])c1ccc(-c2cnc3ccccn23)cc1, the TGI rises from 26 µM to greater than 100 µM.

COc1ccc(/C=C(\C(C)=O)C(=O)Nc2ccccc2)cc1 and COc1ccc(/C(Cl)=C(\C=O)c2ccc(OC)cc2)cc1 cannot be ordered by TGI: greater than 100 µM for the first, greater than 100 µM for the second.

Cc1nn(C(=O)CC(=O)Nc2ccc(Cl)cc2)c(C)c1N=Nc1ccccc1C(=O)O and Cc1cccc2c1Sc1ccccc1C2NC(=O)CCN(C)C (stereo unspecified) cannot be ordered by TGI: greater than 100 µM for the first, greater than 100 µM for the second.

CC(Oc1ccc(OCC2CCCCC2)cc1)C(=O)OCC(=O)c1ccc(-c2ccccc2)cc1 (stereo unspecified) and COC12OCCN(C)C1=CC(=O)C1=NNC(C)C12 (stereo unspecified) cannot be ordered by TGI: greater than 100 µM for the first, greater than 100 µM for the second.

tested on: M14 melanoma; experiment: NCI anticancer screen, dose series, 48 h

First: Cn1c2ccccc2c2ncc3[nH]c4ccccc4c3c21
Second: O=[N+]([O-])c1ccc(-c2cnc3ccccn23)cc1
The TGI of the first is lower: 35.2 µM for the first, greater than 100 µM for the second.

COc1ccc(/C=C(\C(C)=O)C(=O)Nc2ccccc2)cc1 and COc1ccc(/C(Cl)=C(\C=O)c2ccc(OC)cc2)cc1 cannot be ordered by TGI: greater than 100 µM for the first, greater than 100 µM for the second.

Cc1nn(C(=O)CC(=O)Nc2ccc(Cl)cc2)c(C)c1N=Nc1ccccc1C(=O)O and Cc1cccc2c1Sc1ccccc1C2NC(=O)CCN(C)C (stereo unspecified) cannot be ordered by TGI: greater than 100 µM for the first, greater than 100 µM for the second.

CC(Oc1ccc(OCC2CCCCC2)cc1)C(=O)OCC(=O)c1ccc(-c2ccccc2)cc1 (stereo unspecified) and COC12OCCN(C)C1=CC(=O)C1=NNC(C)C12 (stereo unspecified) cannot be ordered by TGI: greater than 100 µM for the first, greater than 100 µM for the second.

tested on: HCC-2998 colon; experiment: NCI anticancer screen, dose series, 48 h

Cn1c2ccccc2c2ncc3[nH]c4ccccc4c3c21 and COc1ccc(/C=C(\C(C)=O)C(=O)Nc2ccccc2)cc1 cannot be ordered by TGI: greater than 100 µM for the first, greater than 100 µM for the second.

COc1ccc(/C(Cl)=C(\C=O)c2ccc(OC)cc2)cc1 and CC(Oc1ccc(OCC2CCCCC2)cc1)C(=O)OCC(=O)c1ccc(-c2ccccc2)cc1 (stereo unspecified) cannot be ordered by TGI: greater than 100 µM for the first, greater than 100 µM for the second.

Cc1nn(C(=O)CC(=O)Nc2ccc(Cl)cc2)c(C)c1N=Nc1ccccc1C(=O)O and Cc1cccc2c1Sc1ccccc1C2NC(=O)CCN(C)C (stereo unspecified) cannot be ordered by TGI: greater than 100 µM for the first, greater than 100 µM for the second.

For COC12OCCN(C)C1=CC(=O)C1=NNC(C)C12 (stereo unspecified), the TGI was greater than 100 µM.

tested on: ACHN renal; experiment: NCI anticancer screen, dose series, 48 h

Compared with Cn1c2ccccc2c2ncc3[nH]c4ccccc4c3c21, O=[N+]([O-])c1ccc(-c2cnc3ccccn23)cc1 is higher in TGI: 54.9 µM for the first, greater than 100 µM for the second.

COc1ccc(/C=C(\C(C)=O)C(=O)Nc2ccccc2)cc1 and COc1ccc(/C(Cl)=C(\C=O)c2ccc(OC)cc2)cc1 cannot be ordered by TGI: greater than 100 µM for the first, greater than 100 µM for the second.

Cc1cccc2c1Sc1ccccc1C2NC(=O)CCN(C)C (stereo unspecified) and CC(Oc1ccc(OCC2CCCCC2)cc1)C(=O)OCC(=O)c1ccc(-c2ccccc2)cc1 (stereo unspecified) cannot be ordered by TGI: greater than 100 µM for the first, greater than 100 µM for the second.

tested on: SK-MEL-2 melanoma; experiment: NCI anticancer screen, dose series, 48 h

Cn1c2ccccc2c2ncc3[nH]c4ccccc4c3c21 and O=[N+]([O-])c1ccc(-c2cnc3ccccn23)cc1 cannot be ordered by TGI: greater than 100 µM for the first, greater than 100 µM for the second.

COc1ccc(/C=C(\C(C)=O)C(=O)Nc2ccccc2)cc1 and COc1ccc(/C(Cl)=C(\C=O)c2ccc(OC)cc2)cc1 cannot be ordered by TGI: greater than 100 µM for the first, greater than 100 µM for the second.

Cc1nn(C(=O)CC(=O)Nc2ccc(Cl)cc2)c(C)c1N=Nc1ccccc1C(=O)O and CC(Oc1ccc(OCC2CCCCC2)cc1)C(=O)OCC(=O)c1ccc(-c2ccccc2)cc1 (stereo unspecified) cannot be ordered by TGI: greater than 100 µM for the first, greater than 100 µM for the second.

tested on: A498 renal; experiment: NCI anticancer screen, dose series, 48 h

First: Cn1c2ccccc2c2ncc3[nH]c4ccccc4c3c21
Second: O=[N+]([O-])c1ccc(-c2cnc3ccccn23)cc1
The TGI of the first is lower: 36.7 µM for the first, greater than 100 µM for the second.

COc1ccc(/C(Cl)=C(\C=O)c2ccc(OC)cc2)cc1 and CC(Oc1ccc(OCC2CCCCC2)cc1)C(=O)OCC(=O)c1ccc(-c2ccccc2)cc1 (stereo unspecified) cannot be ordered by TGI: greater than 100 µM for the first, greater than 100 µM for the second.

Cc1nn(C(=O)CC(=O)Nc2ccc(Cl)cc2)c(C)c1N=Nc1ccccc1C(=O)O and COC12OCCN(C)C1=CC(=O)C1=NNC(C)C12 (stereo unspecified) cannot be ordered by TGI: greater than 100 µM for the first, greater than 100 µM for the second.

tested on: K-562 leukemia; experiment: NCI anticancer screen, dose series, 48 h

Compared with Cn1c2ccccc2c2ncc3[nH]c4ccccc4c3c21, O=[N+]([O-])c1ccc(-c2cnc3ccccn23)cc1 is higher in TGI: 95.5 µM for the first, greater than 100 µM for the second.

COc1ccc(/C=C(\C(C)=O)C(=O)Nc2ccccc2)cc1 and COc1ccc(/C(Cl)=C(\C=O)c2ccc(OC)cc2)cc1 cannot be ordered by TGI: greater than 100 µM for the first, greater than 100 µM for the second.

Cc1nn(C(=O)CC(=O)Nc2ccc(Cl)cc2)c(C)c1N=Nc1ccccc1C(=O)O and Cc1cccc2c1Sc1ccccc1C2NC(=O)CCN(C)C (stereo unspecified) cannot be ordered by TGI: greater than 100 µM for the first, greater than 100 µM for the second.

CC(Oc1ccc(OCC2CCCCC2)cc1)C(=O)OCC(=O)c1ccc(-c2ccccc2)cc1 (stereo unspecified) and COC12OCCN(C)C1=CC(=O)C1=NNC(C)C12 (stereo unspecified) cannot be ordered by TGI: greater than 100 µM for the first, greater than 100 µM for the second.

tested on: M19-MEL melanoma; experiment: NCI anticancer screen, dose series, 48 h

Going from Cn1c2ccccc2c2ncc3[nH]c4ccccc4c3c21 to O=[N+]([O-])c1ccc(-c2cnc3ccccn23)cc1, the TGI rises from 49.1 µM to greater than 100 µM.

COc1ccc(/C=C(\C(C)=O)C(=O)Nc2ccccc2)cc1 and COc1ccc(/C(Cl)=C(\C=O)c2ccc(OC)cc2)cc1 cannot be ordered by TGI: greater than 100 µM for the first, greater than 100 µM for the second.

Cc1nn(C(=O)CC(=O)Nc2ccc(Cl)cc2)c(C)c1N=Nc1ccccc1C(=O)O and Cc1cccc2c1Sc1ccccc1C2NC(=O)CCN(C)C (stereo unspecified) cannot be ordered by TGI: greater than 100 µM for the first, greater than 100 µM for the second.

CC(Oc1ccc(OCC2CCCCC2)cc1)C(=O)OCC(=O)c1ccc(-c2ccccc2)cc1 (stereo unspecified) and COC12OCCN(C)C1=CC(=O)C1=NNC(C)C12 (stereo unspecified) cannot be ordered by TGI: greater than 100 µM for the first, greater than 100 µM for the second.

tested on: SN12C renal; experiment: NCI anticancer screen, dose series, 48 h

Compared with Cn1c2ccccc2c2ncc3[nH]c4ccccc4c3c21, O=[N+]([O-])c1ccc(-c2cnc3ccccn23)cc1 is higher in TGI: 73.2 µM for the first, greater than 100 µM for the second.

COc1ccc(/C=C(\C(C)=O)C(=O)Nc2ccccc2)cc1 and COc1ccc(/C(Cl)=C(\C=O)c2ccc(OC)cc2)cc1 cannot be ordered by TGI: greater than 100 µM for the first, greater than 100 µM for the second.

Cc1nn(C(=O)CC(=O)Nc2ccc(Cl)cc2)c(C)c1N=Nc1ccccc1C(=O)O and Cc1cccc2c1Sc1ccccc1C2NC(=O)CCN(C)C (stereo unspecified) cannot be ordered by TGI: greater than 100 µM for the first, greater than 100 µM for the second.

CC(Oc1ccc(OCC2CCCCC2)cc1)C(=O)OCC(=O)c1ccc(-c2ccccc2)cc1 (stereo unspecified) and COC12OCCN(C)C1=CC(=O)C1=NNC(C)C12 (stereo unspecified) cannot be ordered by TGI: greater than 100 µM for the first, greater than 100 µM for the second.

tested on: OVCAR-5 ovarian; experiment: NCI anticancer screen, dose series, 48 h

Going from Cn1c2ccccc2c2ncc3[nH]c4ccccc4c3c21 to O=[N+]([O-])c1ccc(-c2cnc3ccccn23)cc1, the TGI rises from 47.8 µM to greater than 100 µM.

COc1ccc(/C=C(\C(C)=O)C(=O)Nc2ccccc2)cc1 and COc1ccc(/C(Cl)=C(\C=O)c2ccc(OC)cc2)cc1 cannot be ordered by TGI: greater than 100 µM for the first, greater than 100 µM for the second.

Cc1nn(C(=O)CC(=O)Nc2ccc(Cl)cc2)c(C)c1N=Nc1ccccc1C(=O)O and Cc1cccc2c1Sc1ccccc1C2NC(=O)CCN(C)C (stereo unspecified) cannot be ordered by TGI: greater than 100 µM for the first, greater than 100 µM for the second.

tested on: HT29 colon; experiment: NCI anticancer screen, dose series, 48 h

Going from Cn1c2ccccc2c2ncc3[nH]c4ccccc4c3c21 to O=[N+]([O-])c1ccc(-c2cnc3ccccn23)cc1, the TGI rises from 31.1 µM to greater than 100 µM.

COc1ccc(/C=C(\C(C)=O)C(=O)Nc2ccccc2)cc1 and COc1ccc(/C(Cl)=C(\C=O)c2ccc(OC)cc2)cc1 cannot be ordered by TGI: greater than 100 µM for the first, greater than 100 µM for the second.

Cc1nn(C(=O)CC(=O)Nc2ccc(Cl)cc2)c(C)c1N=Nc1ccccc1C(=O)O and Cc1cccc2c1Sc1ccccc1C2NC(=O)CCN(C)C (stereo unspecified) cannot be ordered by TGI: greater than 100 µM for the first, greater than 100 µM for the second.

CC(Oc1ccc(OCC2CCCCC2)cc1)C(=O)OCC(=O)c1ccc(-c2ccccc2)cc1 (stereo unspecified) and COC12OCCN(C)C1=CC(=O)C1=NNC(C)C12 (stereo unspecified) cannot be ordered by TGI: greater than 100 µM for the first, greater than 100 µM for the second.

tested on: SK-MEL-5 melanoma; experiment: NCI anticancer screen, dose series, 48 h

Going from Cn1c2ccccc2c2ncc3[nH]c4ccccc4c3c21 to O=[N+]([O-])c1ccc(-c2cnc3ccccn23)cc1, the TGI rises from 40 µM to greater than 100 µM.

COc1ccc(/C=C(\C(C)=O)C(=O)Nc2ccccc2)cc1 and COc1ccc(/C(Cl)=C(\C=O)c2ccc(OC)cc2)cc1 cannot be ordered by TGI: greater than 100 µM for the first, greater than 100 µM for the second.

Cc1nn(C(=O)CC(=O)Nc2ccc(Cl)cc2)c(C)c1N=Nc1ccccc1C(=O)O and Cc1cccc2c1Sc1ccccc1C2NC(=O)CCN(C)C (stereo unspecified) cannot be ordered by TGI: greater than 100 µM for the first, greater than 100 µM for the second.

CC(Oc1ccc(OCC2CCCCC2)cc1)C(=O)OCC(=O)c1ccc(-c2ccccc2)cc1 (stereo unspecified) and COC12OCCN(C)C1=CC(=O)C1=NNC(C)C12 (stereo unspecified) cannot be ordered by TGI: greater than 100 µM for the first, greater than 100 µM for the second.

tested on: OVCAR-3 ovarian; experiment: NCI anticancer screen, dose series, 48 h

Compared with Cn1c2ccccc2c2ncc3[nH]c4ccccc4c3c21, O=[N+]([O-])c1ccc(-c2cnc3ccccn23)cc1 is higher in TGI: 31.6 µM for the first, greater than 100 µM for the second.

COc1ccc(/C=C(\C(C)=O)C(=O)Nc2ccccc2)cc1 and COc1ccc(/C(Cl)=C(\C=O)c2ccc(OC)cc2)cc1 cannot be ordered by TGI: greater than 100 µM for the first, greater than 100 µM for the second.

Cc1nn(C(=O)CC(=O)Nc2ccc(Cl)cc2)c(C)c1N=Nc1ccccc1C(=O)O and CC(Oc1ccc(OCC2CCCCC2)cc1)C(=O)OCC(=O)c1ccc(-c2ccccc2)cc1 (stereo unspecified) cannot be ordered by TGI: greater than 100 µM for the first, greater than 100 µM for the second.

— PubChem BioAssay (NCI)
